# Experimental data published in patent US20060159780A1, “Prevention and amelioration of acetaminophen toxicity with tea melanin” (National Chiao Tung University, priority 2005, published 2006).
# What was measured:
# ICR mice = experiment: Toxicity of NAPAP in mice: mortality and behaviour; format: in vivo
# Protocol: (§1) Adult male ICR mice (30±5 g) were employed for all experiments. Animals were housed under controlled condition (25±2° C.) and 12 h light/dark cycle, and allowed free access to food and water, but fasted overnight before treatment. Animals were divided into several groups including control group (not receiving any treatment), negative control (receiving TSM alone), positive control (receiving only NAPAP), and experimental groups receiving NAPAP and TSM together. Each experimental group consisted of 6 mice. NAPAP was dissolved in normal saline (pH 7.4) and administered inraperitonially (i.p.) with a dose of 400 mg/kg. TSM was dissolved in distillate water at pH 7.2 and administered i.p. with doses of 10, 20, 30, or 40 mg/kg 2 h before intoxication. All animals were sacrificed by ether anesthesia 24 h after the NAPAP exposure. Blood samples were withdrawn by cardiac puncture for determination of alanine aminotransferase (ALT) activity using commercially available kit (Sigma 505-P). Liver was isolated and perfused with normal saline to wash out the blood. It was then used for determination of GSH, oxidized glutathione (GSSG), superoxide dismutase (SOD), thiobarbituric acid reactive substances (TBARS), and reduced forms of coenzymes Q9 (CoQ9) and Q10 (CoQ10).
# The behavior of the animals in experimental group resembled the control group by movement activity. […]
# [1] = tested on: alanine aminotransferase (ALT) activity; experiment: Alanine aminotransferase (ALT) activity in blood of NAPAP-intoxicated mice; format: in vivo; settings: NAPAP 400 mg/kg i.p. alone; 24 h of exposure; mean ± SEM
# Protocol: as §1
# hepatic GSH = experiment: Hepatic GSH assay; format: in vivo, mice
# Protocol: as §1, with “Blood samples were withdrawn by cardiac puncture for determination of alanine aminotransferase (ALT) activity using commercially available kit (Sigma 505-P). Liver was isolated and perfused with normal saline to wash out the blood. It was then used for determination of GSH, oxidized glutathione (GSSG), superoxide dismutase (SOD), thiobarbituric acid reactive substances (TBARS), and reduced forms of coenzymes Q9 (CoQ9) and Q10 (CoQ10).” left out
# (§2) Frozen liver tissue was homogenized in 5% trichloroacetic acid (TCA) supplemented with 5 mM EDTA under a stream of nitrogen gas, then centrifuged at 20,000 g for 10 min at 4° C. […] The total hepatic glutathione level representing the sum of GSH and GSSG was determined using dithiobis-2-nitrobenzoic acid (Griffith, O. W. Anal. Biochem. 1980, 106, 207-212). The GSSG level was determined after elimination of GSH by reaction with 2-vinylpyridine, and the actual GSH level was calculated by subtracting the GSSG level from the total glutathione.
# [2] = tested on: oxidized glutathione (GSSG); experiment: Hepatic GSSG assay; format: in vivo, mice; settings: NAPAP 400 mg/kg i.p. alone; liver, 24 h; mean ± SEM
# Protocol: as §1, with “Blood samples were withdrawn by cardiac puncture for determination of alanine aminotransferase (ALT) activity using commercially available kit (Sigma 505-P). Liver was isolated and perfused with normal saline to wash out the blood. It was then used for determination of GSH, oxidized glutathione (GSSG), superoxide dismutase (SOD), thiobarbituric acid reactive substances (TBARS), and reduced forms of coenzymes Q9 (CoQ9) and Q10 (CoQ10).” left out
# as §2
# [3] = tested on: superoxide dismutase (SOD); experiment: Superoxide dismutase assay in mouse liver; format: in vivo, mice; settings: NAPAP alone, FIG. 2
# Protocol: as §1, with “Blood samples were withdrawn by cardiac puncture for determination of alanine aminotransferase (ALT) activity using commercially available kit (Sigma 505-P). Liver was isolated and perfused with normal saline to wash out the blood. It was then used for determination of GSH, oxidized glutathione (GSSG), superoxide dismutase (SOD), thiobarbituric acid reactive substances (TBARS), and reduced forms of coenzymes Q9 (CoQ9) and Q10 (CoQ10).” left out
# Determination of superoxide dismutase activity in mouse liver was based on inhibition of nitrite formation in reaction of oxidation of hydroxylammonium with superoxide anion radical (Elstner, E. F. and Heupel, A. Anal. Biochem. 1976, 70, 616-620). […] Optical absorbance at 530 nm was measured with Ultrospec III spectrophotometer (Pharmacia, LKB). The results were expressed as units of SOD activity calculated per milligram of protein.
# CoQ9 = experiment: Coenzymes Q assay in liver: CoQ9; format: in vivo, mice; settings: NAPAP 400 mg/kg itself, FIG. 3
# Protocol: as §1, with “It was then used for determination of GSH, oxidized glutathione (GSSG), superoxide dismutase (SOD), thiobarbituric acid reactive substances (TBARS), and reduced forms of coenzymes Q9 (CoQ9) and Q10 (CoQ10).” left out
# (§3) Determination of reduced forms of CoQ9 and CoQ10 was carried out by the method of Ikenoya et al. (Ikenoya, S. et al., Chem Pharm Bull. 1981, 29, 158-164). […] The extract was analyzed using HPLC with Jasco 840 EC detector and Chemosorb ODS-H column (4.6×250 mm). […]
# CoQ10 = experiment: Coenzymes Q assay in liver: CoQ10; format: in vivo, mice; settings: NAPAP 400 mg/kg itself, FIG. 3
# Protocol: as §1, with “It was then used for determination of GSH, oxidized glutathione (GSSG), superoxide dismutase (SOD), thiobarbituric acid reactive substances (TBARS), and reduced forms of coenzymes Q9 (CoQ9) and Q10 (CoQ10).” left out
# as §3
# [4] = tested on: antibody-forming cells (AFC) of splenocytes; experiment: Antibody-producing response (AFC plaque assay) after SRBC sensitization; format: in vivo; settings: NAPAP 400 mg/kg i.p.; SRBC-sensitized ICR mice
# Protocol: Experiments were performed on 10 groups of intact ICR mice consisting of 4 animals each. The first 5 groups were injected i.p. with the following single doses of TSM: 0, 10, 20, 30, and 40 mg/kg. The second 5 groups were injected similarly to the first groups with TSM, but after 2 h animals were again injected (i.p.) with 400 mg/kg NAPAP. One day after administration of TSM or TSM+NAPAP, mice were injected into the tail vein with 1×10^8 sheep red blood cells (SRBC) prepared in 0.2 mL of saline. An additional 4 animals received only SRBC (antigen control). Four days after their sensitization with SRBC, animals were sacrificed, and their spleens were removed. Single splenocytes were prepared from each spleen in 5 mL of RPMI-1640 media. Enumeration of the antibody-forming cells (AFC) was performed using a plaque assay (Jerne, N. K. and Nordin, A. A. Science 1963, 140, 405). AFC values were calculated for 10^6 splenocytes.
smiles,measurement,setting,value
"CC(=O)Nc1ccc(O)cc1 [NAPAP, N-Acetyl-p-aminophenol]",Animal lethality,ICR mice; NAPAP 400 mg/kg administered alone,66%
same,Mortality (dead/total),"ICR mice; NAPAP 400 mg/kg i.p. alone, 24 h of exposure",2/6
same,ALT,[1],2043 U/L
same,GSH,"hepatic GSH; NAPAP 400 mg/kg i.p. alone, liver, 24 h, mean ± SEM",13 ± 1 nmol/mg prot.
same,depletion of GSH level as compared to control,"hepatic GSH; NAPAP alone, 24 h after administration",2.6 fold
same,GSSG,[2],3.2 ± 0.4 nmol/mg prot.
same,decrease of SOD activity as compared to control,[3],~4 fold
same,"content of CoQ9 diminished, compared to negative control",CoQ9,60%
same,"coenzyme Q10 content diminished, compared to negative control",CoQ10,55%
same,suppression of AFC against the antigen control level,[4],26%
